{"source": "patent US20020076747A1", "about": "“Method for expanding embryonic stem cells in serum-free culture” (priority 1997, published 2002)", "key": {"D3 ES cells": {"tested_on": "D3 ES cells", "experiment": "Media formulation evaluation assay: ES cell colony morphology, alkaline phosphatase staining and plating efficiency", "type": "cell-based, mouse", "details": "for general plating efficiency and number of undifferentiated ES colonies with or without the component: component added to serum-free formulation (15% in DMEM): 15 μg/L ferric citrate, 0.3 μg/L glycl-histidyl-lysine, 300 μg/L ethanolamine", "protocol": "ES D3 ES cells were used (Doetschman, T. C. et al., J. Embryol. Exp. Morph. 87:27-45 (1985)). Unless otherwise specified, D3 cells at passage 15 were used. Trypsin-EDTA (0.25%, 1 mM) was used to remove cells from plates after rinsing the cell layer with phosphate buffered saline (PBS). Cells were cultured in a humidified 37° C., 10% CO2 incubator.\nThe protocol for a media formulation evaluation assay was as follows. The source of ES cells for the experiments was a sub-confluent dish of ES cells maintained on a feeder layer in ES cell medium with LIF. Feeder layers for experimental conditions were established in 6 well plates (NUNC) by seeding 3-5×10^4 feeder cell/cm^2 and allowing the cells to attach. ES cells were trypsinized to form a cell suspension. Trypsin activity was quenched with serum-supplemented medium, and cells were pelleted by centrifugation at 500× g. The medium was removed and the ES cells were resuspended in DMEM containing 2 mM L-glutamine, 50 U/mL penicillin, 50 ug/mL streptomycin, 100 uM NEAA, and 100 uM 2-mercaptoethanol (final concentrations).\nES cells were then mixed with respective test media (described infra) at a concentration of […]. Feeder cell media was then removed from the feeder plates, and the feeder layers were washed once with 2 mL of DMEM (that was not supplemented with serum or any other additives). 2.5 mL of test medium and ES cells (225/well) were added to each well of feeder cells. Test conditions were assayed in triplicate (3 wells/test condition). The cells were incubated for 7 days while observations were made regarding ES cell growth parameters. Incubation conditions were 37° C., 10% CO2 in air, and humidified atmosphere.\nAt the end of the 7 day culture period, observations were made and then ES cells were harvested, fixed and assayed for the presence of alkaline phosphatase by using a histochemical assay (Sigma diagnostic kit 86-R, Sigma, St. Louis, Mo.). Cells were fixed and assayed according to the manufacturer's directions. In this assay, cells which express alkaline phosphatase stain dark pink or red. ES cell colonies were rated in terms of morphology and strength of alkaline phosphatase staining according to the following parameters. Class I colonies are round, stain dark pink, and have the desired, undifferentiated colony morphology characterized by a well-defined colony border. Class II colonies are those that have begun to differentiate, are stained at least 60% pink, and have a more flattened appearance, with a poorly defined border. […] Plating efficiency was determined by dividing the total number of colonies obtained by the input number of ES cells (225/well)."}, "feeder cells": {"tested_on": "feeder cells", "experiment": "Feeder layer morphology in ES cell cultures", "type": "cell-based", "details": "AAP 50 mg/L, independent of LIF", "from_the_text": "One aspect of the supplement that was sub-optimal related to the morphology of the feeder layer in ES cell cultures maintained in the same culture vessel for more than three days. Generally, ES cells are passaged every two to three days. Typically, during selection of antibiotic-resistant ES cells, cultures are maintained without passaging for ten or more days. […] The detached cells were seen floating in the growth medium.\nIn order to improve the formulation, the addition of L-ascorbic acid-2-phosphate to the formulation was evaluated. In an evaluation assay (as in Example 1), the medium was supplemented with the serum-free supplement (to a fmal concentration of 15%), either with or without L-ascorbic acid-2-phosphate (50 mg/L final concentration), and 10 ng/mL LIF (final concentration).\nThe numbers within parentheses indicate what percentage of total ES cell colonies that the colonies with the indicated degree of differentiation represented. In Table 4, “good” feeder cell morphology reflects a more fibroblast-like character and smooth borders, rather than a spindly, ragged-looking character."}}, "data": [{"compound": "O=C1O[C@H]([C@@H](O)CO)C(O)=C1OP(=O)(O)O", "note": "[L-ascorbic acid-2-phosphate]", "values": [{"measurement": "effect on plating efficiency", "setting": "D3 ES cells; factor alone", "value": "little effect"}, {"measurement": "colony size", "setting": "D3 ES cells; in the absence of LIF", "value": "much improved"}, {"measurement": "percent of class I colonies", "setting": "D3 ES cells; in the absence of LIF", "value": "increased"}, {"measurement": "percent of class III colonies", "setting": "D3 ES cells; in the absence of LIF", "value": "decreased"}, {"measurement": "average colony size (an indication of growth rate)", "setting": "D3 ES cells; with LIF in the culture media", "value": "increase"}, {"measurement": "effect on the morphology class of colonies obtained", "setting": "D3 ES cells; with LIF in the culture media", "value": "virtually no effect"}, {"measurement": "appearance of the feeder layer", "setting": "feeder cells", "value": "improved"}]}, {"compound": "ferric citrate", "values": [{"measurement": "general plating efficiency and number of undifferentiated ES colonies with or without the component", "setting": "D3 ES cells", "value": "no different"}]}, {"compound": "NCCO", "note": "[ethanolamine]", "values": [{"measurement": "general plating efficiency and number of undifferentiated ES colonies with or without the component", "setting": "D3 ES cells", "value": "no different"}]}, {"compound": "glycl-histidyl-lysine", "values": [{"measurement": "general plating efficiency and number of undifferentiated ES colonies with or without the component", "setting": "D3 ES cells", "value": "no different"}]}]}
